According to patent US11214572B2, “7-site substituted pyrrole triazine compounds or pharmaceutically acceptable salts thereof, and preparation method thereof and uses thereof” (SHANGHAI INSTITUTE OF MATERIA MEDICA, CHINESE ACADEMY OF …, priority 2017, dated 2022):
“And” between values parts separate entries of the source, which are not always exact repeats. Equal values may be shown once. “Also recorded” adds a separate entry of the source. Read-outs that look alike come from different tables or passages of the source. Blank lines part the entries; values can stand above or below the compound they belong to.

Key:
[1] = Preliminary pharmacokinetic test, intravenous injection; format: in vivo, SD rats; conditions: 5 mg/kg, rats, intravenous injection 5 mg/kg, tested as monomesylate; for Vd: read-out: Vss
Description: (§1) 1. 14 healthy SD rats, male, weigh 200-220 g, were taken to be randomly divided into 4 groups, 3-4 in each group, and were administered the tested compound P-17 and compound CYH33 (compared with compound P-17, missing a methyl group on 7-position) via intragastric administration (10 mg/kg) and intravenous injection (5 mg/kg) respectively, the specific arrangements are shown in the following table 3:
(§2) The rats were fasted for 12 h before experiment, water was taken freely. The rats were fed 2 h after dosing.
Dosing via intravenous: 5 min, 0.25 h, 0.5 h, 1.0 h, 2.0 h, 4.0 h, 6.0 h, 8.0 h, and 24 h after dosing.
(§3) At the above setting time points, 0.3 ml of venous blood was taken from the retroorbital venous plexus of the rat, and placed in a heparinized test tube, centrifuged at 11,000 rpm for 5 min, then the plasma was separated, and frozen in a refrigerator at −20° C.
(§4) LC/MS/MS method was used to determine the concentration of the compounds in the plasma of rats.
(§5) The non-compartment model of Phoenix 1.3 software (Pharsight Corporation, USA) was used to calculate the pharmacokinetic parameters after dosing.

[2] = molecular target: PI3Kα (Homo sapiens, UniProt P42336); assay: PI3K kinase activity, α isoform; conditions: for inhibition at 0.02 µM: read-out: IH (%) @ 20 nM, α
Chain of PI3Kα (P42336 whole entry, canonical isoform): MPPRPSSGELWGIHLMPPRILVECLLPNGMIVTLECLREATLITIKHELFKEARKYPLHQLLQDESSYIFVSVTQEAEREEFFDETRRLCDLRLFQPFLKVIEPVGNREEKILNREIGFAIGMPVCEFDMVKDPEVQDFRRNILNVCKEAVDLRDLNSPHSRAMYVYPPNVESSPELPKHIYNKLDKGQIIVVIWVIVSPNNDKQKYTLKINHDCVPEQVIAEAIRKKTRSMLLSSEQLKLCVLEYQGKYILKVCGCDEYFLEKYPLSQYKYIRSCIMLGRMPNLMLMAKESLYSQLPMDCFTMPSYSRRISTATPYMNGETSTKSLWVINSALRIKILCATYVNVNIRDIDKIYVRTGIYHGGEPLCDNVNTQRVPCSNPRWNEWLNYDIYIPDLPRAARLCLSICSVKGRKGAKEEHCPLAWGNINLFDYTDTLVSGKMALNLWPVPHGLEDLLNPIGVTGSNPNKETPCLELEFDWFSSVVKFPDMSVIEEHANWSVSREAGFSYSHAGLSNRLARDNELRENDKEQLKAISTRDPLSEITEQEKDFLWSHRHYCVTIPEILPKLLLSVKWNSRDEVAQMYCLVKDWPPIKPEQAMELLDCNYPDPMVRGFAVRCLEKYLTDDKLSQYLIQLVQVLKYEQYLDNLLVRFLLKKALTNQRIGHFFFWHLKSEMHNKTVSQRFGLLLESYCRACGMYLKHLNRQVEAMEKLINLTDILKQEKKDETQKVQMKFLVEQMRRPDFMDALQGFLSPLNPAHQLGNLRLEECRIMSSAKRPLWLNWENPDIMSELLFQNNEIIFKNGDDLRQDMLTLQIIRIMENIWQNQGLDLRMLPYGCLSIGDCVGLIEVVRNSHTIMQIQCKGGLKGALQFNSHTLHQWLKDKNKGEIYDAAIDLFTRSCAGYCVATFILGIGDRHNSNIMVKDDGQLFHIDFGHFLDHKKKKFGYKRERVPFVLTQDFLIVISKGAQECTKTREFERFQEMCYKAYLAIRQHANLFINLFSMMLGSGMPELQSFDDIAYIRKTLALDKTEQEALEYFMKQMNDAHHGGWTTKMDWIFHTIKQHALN
Chain of PI3Kα (P27986 whole entry partner, canonical isoform): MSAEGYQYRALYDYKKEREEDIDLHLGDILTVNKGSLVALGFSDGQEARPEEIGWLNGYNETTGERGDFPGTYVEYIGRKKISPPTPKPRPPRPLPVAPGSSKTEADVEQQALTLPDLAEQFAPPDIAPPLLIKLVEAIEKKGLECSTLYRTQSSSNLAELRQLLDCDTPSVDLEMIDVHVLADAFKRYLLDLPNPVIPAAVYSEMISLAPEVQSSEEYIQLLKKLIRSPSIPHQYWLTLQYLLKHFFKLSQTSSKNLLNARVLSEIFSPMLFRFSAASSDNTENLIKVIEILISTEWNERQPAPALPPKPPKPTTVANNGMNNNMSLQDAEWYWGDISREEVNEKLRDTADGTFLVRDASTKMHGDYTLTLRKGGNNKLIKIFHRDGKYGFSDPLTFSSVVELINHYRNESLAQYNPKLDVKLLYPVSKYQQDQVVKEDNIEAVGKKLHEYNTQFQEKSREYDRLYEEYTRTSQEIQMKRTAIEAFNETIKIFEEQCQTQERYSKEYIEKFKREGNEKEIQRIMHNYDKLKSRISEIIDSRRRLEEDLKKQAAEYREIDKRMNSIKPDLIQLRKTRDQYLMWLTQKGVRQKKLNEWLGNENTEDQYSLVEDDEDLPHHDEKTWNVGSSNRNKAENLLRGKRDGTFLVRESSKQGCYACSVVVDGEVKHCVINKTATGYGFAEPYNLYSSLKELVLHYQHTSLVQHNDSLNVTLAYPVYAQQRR
Description: (§6) Concentration setting for preliminary screening: the compounds to be tested were dissolved in DMSO (dimethyl sulfoxide) to 100 μM or 10 μM as storage solutions; for each one, 2 μL was taken to be added to 48 μL of 1× Reaction Buffer to obtain a 4 μM or 400 nM compound solution containing 4% DMSO. After well mixing, the mixture was diluted with 4% DMSO in 1× Reaction Buffer to obtain a 4 μM or 400 nM compound solution. 5 μL of each diluted solution was taken to be added to a 384-well plate, so that the final concentration of the compound in the final 20 μL of the kinase reaction system was 1 μM and 100 nM or 100 nM and 20 nM, respectively, and containing 1% DMSO.
(§7) The compounds to be tested were dissolved in DMSO to 1 mM or 10 mM as working solutions, 1 μL of each working solution was taken to be added to 24 μl of 1× Kinase Buffer A to obtain a 40 μM or 400 μM compound solution containing 4% DMSO. The compound solution was diluted by 4× gradient in sequence, 10 dilution concentrations.
(§8) Calculation of the Inhibition Rate • The inhibitory rate was calculated by the following formula: Inhibitory rate=(ERsample−ER0%)/(ER100%−ER0%)×100%

[3] = Preliminary pharmacokinetic test, intragastric administration; format: in vivo, SD rats; conditions: rats; for half-life: read-out: T½ (converted)
Description: as §1, §2
Dosing via intragastric administration: 0.25 h, 0.5 h, 1.0 h, 2.0 h, 3.0 h, 4.0 h, 6.0 h, 8.0 h, and 24 h after dosing.
as §3, §4, §5

[4] = molecular target: PI3Kβ (Homo sapiens, UniProt P42338); assay: PI3K kinase activity, β isoform; conditions: for inhibition at 0.1 µM: read-out: IH (%) @ 100 nM, β;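 as to all read-outs here: kinase reaction containing 1% DMSO, read as an emission ratio, with inhibition scaled between the 0% and 100% control ratios. IC50 values come from a ten-point fourfold dilution series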
Chain of PI3Kβ (P42338 whole entry, canonical isoform): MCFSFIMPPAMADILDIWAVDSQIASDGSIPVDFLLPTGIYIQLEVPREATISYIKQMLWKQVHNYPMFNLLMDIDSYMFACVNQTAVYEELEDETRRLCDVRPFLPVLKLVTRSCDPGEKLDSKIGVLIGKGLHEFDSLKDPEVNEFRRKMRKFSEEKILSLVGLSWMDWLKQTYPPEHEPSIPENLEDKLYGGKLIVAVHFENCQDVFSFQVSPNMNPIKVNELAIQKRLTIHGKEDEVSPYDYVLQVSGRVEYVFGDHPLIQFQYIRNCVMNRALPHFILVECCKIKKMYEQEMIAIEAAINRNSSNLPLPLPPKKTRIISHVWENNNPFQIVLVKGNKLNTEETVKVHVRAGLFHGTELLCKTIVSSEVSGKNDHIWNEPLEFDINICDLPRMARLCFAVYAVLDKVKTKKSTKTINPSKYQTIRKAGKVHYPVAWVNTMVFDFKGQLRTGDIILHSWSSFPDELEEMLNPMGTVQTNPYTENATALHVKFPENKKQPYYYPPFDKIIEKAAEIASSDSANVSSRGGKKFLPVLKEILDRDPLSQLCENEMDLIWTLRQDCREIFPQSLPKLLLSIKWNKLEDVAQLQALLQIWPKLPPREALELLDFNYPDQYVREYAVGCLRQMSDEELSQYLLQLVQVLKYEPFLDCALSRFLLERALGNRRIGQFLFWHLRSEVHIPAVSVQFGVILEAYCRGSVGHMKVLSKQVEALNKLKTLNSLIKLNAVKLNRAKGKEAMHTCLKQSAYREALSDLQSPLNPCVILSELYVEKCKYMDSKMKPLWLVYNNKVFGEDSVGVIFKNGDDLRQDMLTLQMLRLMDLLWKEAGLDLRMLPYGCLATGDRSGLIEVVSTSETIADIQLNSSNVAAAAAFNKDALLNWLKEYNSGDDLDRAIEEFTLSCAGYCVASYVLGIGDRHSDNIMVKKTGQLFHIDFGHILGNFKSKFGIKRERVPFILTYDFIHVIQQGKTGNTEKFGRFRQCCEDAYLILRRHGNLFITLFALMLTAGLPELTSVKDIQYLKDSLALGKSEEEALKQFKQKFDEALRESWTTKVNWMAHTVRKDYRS
Chain of PI3Kβ (P27986 whole entry partner, canonical isoform): as the sequence (P27986 whole entry partner, canonical isoform) above
Description: as §6, §7, §8

[5] = molecular target: PI3Kγ (Homo sapiens, UniProt P48736); assay: PI3K kinase activity, γ isoform; format: biochemical; conditions: for inhibition at 0.1 µM: compound 100 nM, read-out: IH (%) @ 100 nM, γ;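 as to all read-outs here: kinase reaction run in 384-well plates, with inhibition normalised between the 0% and 100% reference reactions. IC50 derived from a ten-point, fourfold serial dilution series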
Chain of PI3Kγ (P48736 whole entry, canonical isoform): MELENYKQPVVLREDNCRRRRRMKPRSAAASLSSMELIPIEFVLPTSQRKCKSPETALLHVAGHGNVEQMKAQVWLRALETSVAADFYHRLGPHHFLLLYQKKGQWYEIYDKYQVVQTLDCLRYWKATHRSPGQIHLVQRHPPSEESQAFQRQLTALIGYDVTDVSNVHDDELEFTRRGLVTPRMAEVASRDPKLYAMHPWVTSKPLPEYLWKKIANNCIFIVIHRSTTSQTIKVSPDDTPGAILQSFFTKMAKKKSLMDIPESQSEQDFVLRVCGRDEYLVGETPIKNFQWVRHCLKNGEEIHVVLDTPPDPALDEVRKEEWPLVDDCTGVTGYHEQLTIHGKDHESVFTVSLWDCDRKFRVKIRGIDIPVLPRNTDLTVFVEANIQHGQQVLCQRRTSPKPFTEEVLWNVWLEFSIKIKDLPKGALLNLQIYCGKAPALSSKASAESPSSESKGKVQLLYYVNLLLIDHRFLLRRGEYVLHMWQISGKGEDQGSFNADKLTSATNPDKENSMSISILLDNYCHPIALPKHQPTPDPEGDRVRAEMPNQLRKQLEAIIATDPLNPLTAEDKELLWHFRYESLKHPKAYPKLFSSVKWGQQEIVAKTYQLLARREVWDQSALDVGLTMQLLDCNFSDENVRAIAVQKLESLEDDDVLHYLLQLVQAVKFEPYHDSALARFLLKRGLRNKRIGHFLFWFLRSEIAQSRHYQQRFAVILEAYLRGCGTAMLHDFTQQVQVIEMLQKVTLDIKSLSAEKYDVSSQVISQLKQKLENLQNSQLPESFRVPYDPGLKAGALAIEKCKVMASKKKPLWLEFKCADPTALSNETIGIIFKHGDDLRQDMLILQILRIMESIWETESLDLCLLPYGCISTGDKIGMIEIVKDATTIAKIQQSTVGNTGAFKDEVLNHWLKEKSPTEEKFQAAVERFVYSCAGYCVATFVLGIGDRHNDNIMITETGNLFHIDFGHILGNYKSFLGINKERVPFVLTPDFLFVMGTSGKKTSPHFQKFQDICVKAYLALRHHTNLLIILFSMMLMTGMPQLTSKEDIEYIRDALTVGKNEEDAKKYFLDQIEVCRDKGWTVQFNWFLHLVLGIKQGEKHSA
Description: as §6, §7, §8

[6] = molecular target: PI3Kδ (Homo sapiens, UniProt O00329); assay: PI3K kinase activity, δ isoform; conditions: for inhibition at 0.02 µM: read-out: IH (%) @ 20 nM, δ
Chain of PI3Kδ (O00329 whole entry, canonical isoform): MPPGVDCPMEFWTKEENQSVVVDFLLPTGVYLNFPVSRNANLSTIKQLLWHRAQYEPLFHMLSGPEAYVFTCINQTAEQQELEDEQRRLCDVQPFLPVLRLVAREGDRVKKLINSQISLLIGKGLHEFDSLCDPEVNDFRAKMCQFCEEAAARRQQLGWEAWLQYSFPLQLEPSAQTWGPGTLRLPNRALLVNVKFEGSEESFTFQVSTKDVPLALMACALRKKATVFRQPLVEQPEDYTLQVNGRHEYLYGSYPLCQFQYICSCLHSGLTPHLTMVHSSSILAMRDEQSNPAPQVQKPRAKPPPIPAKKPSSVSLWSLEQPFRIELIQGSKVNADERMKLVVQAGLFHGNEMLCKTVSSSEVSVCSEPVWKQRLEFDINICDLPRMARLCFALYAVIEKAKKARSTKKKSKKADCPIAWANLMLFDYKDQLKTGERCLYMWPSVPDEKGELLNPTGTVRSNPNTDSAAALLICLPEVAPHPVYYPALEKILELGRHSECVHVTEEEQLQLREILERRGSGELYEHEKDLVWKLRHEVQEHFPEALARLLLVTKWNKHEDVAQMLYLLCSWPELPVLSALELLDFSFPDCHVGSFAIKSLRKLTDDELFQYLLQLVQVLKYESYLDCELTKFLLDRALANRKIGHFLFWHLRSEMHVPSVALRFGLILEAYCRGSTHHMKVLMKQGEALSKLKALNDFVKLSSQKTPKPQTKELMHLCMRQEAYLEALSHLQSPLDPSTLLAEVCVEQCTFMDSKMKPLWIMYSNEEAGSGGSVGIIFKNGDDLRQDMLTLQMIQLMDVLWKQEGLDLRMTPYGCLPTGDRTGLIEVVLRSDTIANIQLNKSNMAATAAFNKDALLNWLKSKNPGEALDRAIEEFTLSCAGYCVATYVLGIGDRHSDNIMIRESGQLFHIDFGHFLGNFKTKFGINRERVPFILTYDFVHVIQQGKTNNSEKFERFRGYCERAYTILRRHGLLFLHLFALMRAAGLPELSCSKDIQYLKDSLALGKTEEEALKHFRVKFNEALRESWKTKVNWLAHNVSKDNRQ
Chain of PI3Kδ (P27986 whole entry partner, canonical isoform): as the sequence (P27986 whole entry partner, canonical isoform) above
Description: as §6, §7, §8

[7] = male, SD, rat, plasma, iv, Mean
[8] = male, SD, rat, plasma, iv, individual animal

AUC(0-inf) [1, 7]: 3240 ng·h/mL
AUC(0-t) [1, 7]: 2990 ng·h/mL
clearance [1, 7]: 26.8 mL/min/kg
half-life [1, 7]: 2.1 h
MRT ([1]; male, SD, rat, plasma, iv, Mean, read-out: MRT): 2.71 h
Vd [1, 7]: 4.17 L/kg
AUC(0-inf) [1, 8]: 4190 ng·h/mL
AUC(0-t) [1, 8]: 3700 ng·h/mL
clearance [1, 8]: 19.8 mL/min/kg
half-life [1, 8]: 2.61 h
MRT ([1]; male, SD, rat, plasma, iv, individual animal, read-out: MRT): 3.53 h
Vd [1, 8]: 4.21 L/kg
AUC 0 − t ([1]; individual animal): 2564 ng·h/mL and 2711 ng·h/mL
AUC 0 − ∞ ([1]; individual animal): 2672 ng·h/mL and 2845 ng·h/mL
Cl ([1]; individual animal): 31.2 mL/min/kg and 29.3 mL/min/kg
MRT ([1]; individual animal): 2.13 h and 2.46 h
T1/2 ([1]; individual animal): 1.88 h and 1.82 h
Vss ([1]; individual animal): 3.98 L/kg and 4.33 L/kg
IC50 [2]: 76.2 nM
inhibition at 0.02 µM [2]: 60.7%
half-life ([3]; male, SD, rat, plasma, oral, 10 mg/kg, 10 mg/kg, Mean, monomesylate): 2.77 h
half-life ([3]; male, SD, rat, plasma, oral, 10 mg/kg, 10 mg/kg, individual animal, monomesylate): 3.08 h
AUC(0-inf) ([3]; male, SD, rat, plasma, oral, 10 mg/kg, Mean, monomesylate): 6120 ng·h/mL
bioavailability ([3]; male, SD, rat, plasma, oral, 10 mg/kg versus 5 mg/kg intravenous, monomesylate, read-out: F (absolute bioavailability)): 95.8%
steady-state distribution volume Vss, average residence time MRT, half-life T½ and absolute bioavailability F compared with CYH33 (in words) ([3]; monomesylates): improved
IC50 [4]: 912 nM
inhibition at 0.1 µM [4]: 16%
IC50 [5]: 290 nM
inhibition at 0.1 µM [5]: 47%
IC50 [6]: 75.2 nM
inhibition at 0.02 µM [6]: 64.1%
Structure (SMILES): COC(=O)Nc1cc(C(F)(F)F)c(-c2nc(N3CCOCC3)c3cc(CN4CCN(S(C)(=O)=O)CC4)c(C)n3n2)cn1 [Compound P-17]

IC50 [2]: 77.5 nM
inhibition at 0.02 µM [2]: 24.8%
IC50 [4]: 2650 nM
inhibition at 0.1 µM [4]: 3.44%
IC50 [5]: 1950 nM
inhibition at 0.1 µM [5]: 6.83%
IC50 [6]: 85.6 nM
inhibition at 0.02 µM [6]: 63.3%
Structure (SMILES): Cc1c(CN2CCN(C(=O)[C@H](C)O)CC2)cc2c(N3CCOCC3)nc(-c3cnc(N)cc3C(F)(F)F)nn12 [Compound P-14]

IC50 [2]: 321 nM
inhibition at 0.02 µM [2]: 18.7%
IC50 [4]: 2140 nM
inhibition at 0.1 µM [4]: 4.74%
IC50 [5]: 37600 nM
inhibition at 0.1 µM [5]: 0.62%
IC50 [6]: 36.6 nM
inhibition at 0.02 µM [6]: 46%
Structure (SMILES): Cc1c(CNCCCN(C)C)cc2c(N3CCOCC3)nc(-c3cnc(N)cc3C(F)(F)F)nn12 [Compound P-2]

IC50 [2]: 424 nM
inhibition at 0.02 µM [2]: -0.6%
IC50 [4]: 1360 nM
inhibition at 0.1 µM [4]: 14.9%
IC50 [5]: 4830 nM
inhibition at 0.1 µM [5]: -2.33%
IC50 [6]: 19.6 nM
inhibition at 0.02 µM [6]: 53.2%
Structure (SMILES): Cc1c(CN2CCC(C(C)(C)O)CC2)cc2c(N3CCOCC3)nc(-c3cnc(N)cc3C(F)(F)F)nn12 [Compound P-5]
selectivity for PI3Kδ (in words) ([6]; versus other PI3K isoforms, from Tables 1 and 2): selective inhibitory effect on PI3Kδ; also recorded: good selectivities for PI3Kδ

IC50 [2]: 122 nM
inhibition at 0.02 µM [2]: 50%
IC50 [4]: 1540 nM
inhibition at 0.1 µM [4]: 15.1%
IC50 [5]: 311 nM
inhibition at 0.1 µM [5]: 30.3%
IC50 [6]: 29.5 nM
inhibition at 0.02 µM [6]: 46.5%
Structure (SMILES): Cc1c(CN2CCN(S(C)(=O)=O)CC2)cc2c(N3CCOCC3)nc(-c3cnc(NC(=O)NC(C)C)cc3C(F)(F)F)nn12 [Compound P-22]

inhibition at 0.02 µM [2]: 30.5%
inhibition at 0.1 µM [4]: 2.34%
inhibition at 0.1 µM [5]: 2.16%
inhibition at 0.02 µM [6]: 41.2%
Structure (SMILES): Cc1c(CN2CCN(C(=O)C(C)(C)O)CC2)cc2c(N3CCOCC3)nc(-c3cnc(N)cc3C(F)(F)F)nn12 [Compound P-13]

inhibition at 0.02 µM [2]: 41.7%
inhibition at 0.1 µM [4]: 21.1%
inhibition at 0.02 µM [6]: 56.3%
Structure (SMILES): CS(=O)(=O)N1CCN(Cc2cc3nc(-c4cccc5[nH]ncc45)nc(N4CCOCC4)c3s2)CC1 [GDC0941, 2-(1H-indazol-4-yl)-6-[[4-(methylsulfonyl)-1-piperazinyl]methyl]-4-(4-morpholinyl)thieno[3,2-D]pyrimidine, reference compound]

Structure (SMILES): Cc1c(CN2CCN(S(C)(=O)=O)CC2)cc2c(N3CCOCC3)nc(-c3cnc(NC(=O)NC4CC4)cc3C(F)(F)F)nn12 [Compound P-20]
IC50 [2]: 10.8 nM
inhibition at 0.02 µM [2]: 102%
IC50 [4]: 124 nM
inhibition at 0.1 µM [4]: 57.4%
IC50 [5]: 36.6 nM
inhibition at 0.1 µM [5]: 68.3%
IC50 [6]: 3.73 nM
inhibition at 0.02 µM [6]: 83.1%
